Assay results reported in patent US20230227435A1, “SMALL MOLECULE MODULATORS OF IL-17” (LEO PHARMA A/S, priority 2020, published 2023).

Each molecule was assayed against T1, human IL-17AA (Homo sapiens, UniProt Q16552) (assay: IL-8 release assay in human epithelial keratinocytes adult (HEKa)). Details: HEKa cells; 3 ng/mL HEK-human IL-17AA + 10 ng/mL human TNFalpha; 68-72 hours; IL-8 by HTRF; read-out: Rel EC50 IL-8 release assay.
T1 construct: host or cells: HEK (human embryonic kidney) cells
T1 sequence (Q16552 24-155) 1: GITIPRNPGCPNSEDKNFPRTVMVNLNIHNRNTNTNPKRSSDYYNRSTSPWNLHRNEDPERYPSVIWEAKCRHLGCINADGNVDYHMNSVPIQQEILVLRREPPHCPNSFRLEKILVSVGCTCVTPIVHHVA
T1 sequence (Q16552 24-155) 2: T1 sequence (Q16552 24-155) 1
Format: cell-based
Experimental: Example 8: IL-8 Release Assay in Human Epithelial Keratinocytes Adult (HEKa)
Keratinocytes were seeded at 3500 cells/well in 384-well ViewPlates (Perkin Elmer) in Epilife medium (Thermo Fisher) containing human keratinocyte growth supplement (HKGS) without hydrocortisone and incubated in a humid incubator at 37° C., 5% CO2, overnight. The following day growth medium was removed and 25 μl fresh Epilife medium was added. 75 nL test compound in100% DMSO was added into each well reserved for test compounds, by the use of acoustic pipetting. The remaining wells received an equal volume of DMSO only, as vehicle control, or terfenadine in DMSO, as a positive control for any cytotoxic compounds. Subsequently, another 25 μL Epilife medium was added to each well. Finally, wells containing test compounds and wells prepared to yield maximum stimulation received 25 μL of 9 ng/mL recombinant, human embryonic kidney cell (HEK)-derived human IL-17AA+30 ng/mL human TNF-alpha, in Epilife medium. Wells prepared to define 100% inhibition of IL-17 effects received 25 μL of 30 ng/mL human TNF-alpha alone, in Epilife medium. Final concentrations were 3 ng/mL HEK-human IL-17AA+10 ng/mL human TNFalpha (maximum stimulation) and 10 ng/mL human TNFalpha alone (100% inhibition, Emax), respectively. Cells were incubated for 68-72 hours in the incubator. IL-8 released from the cells was measured by the use of a commercial homogenous time-resolved fluorescence (HTRF) assay (CisBio). 2 μL cell culture supernatant was transferred to a 384-well Proxiplate. 5 μL HTRF reagent was added and the plates were incubated sealed in the dark for 3-22 hours at room temperature. Time-resolved fluorescence was read at 665 vs 620 nm, with excitation at 320 nm, and IL-8 levels were calculated as percent of controls. Reduction of the amount of secreted IL-8 indicates decreased IL-17 signaling. Concentration response curves were fitted by the use of a four-parameter logistic equation. Relative IC50 and Emax were reported from curves showing acceptable fit (r^2>0.9). Cytotoxicity was measured in the cell-containing Viewplates following addition of 7 μL PrestoBlue (Thermo Fisher) and incubation for 2.5-3 hours at room temperature, by measuring fluorescence at 615 nm (excitation at 535 nm). Fluorescence was directly proportional to the amount of metabolic activity. Reduction of fluorescence signal indicated cytotoxicity.
Compounds of the present invention were tested in the IL-8 release assay in human epithelial keratinocytes.
Work on `Cc1n[nH]c(C)c1-c1ccc(NC(=O)C(c2nnc(-c3ccnn3C(C)C)[nH]2)C(C2CC2)C2CC2)cc1` (single isomer, unassigned) [Example 70, 3,3-dicyclopropyl-N-[4-(3,5-dimethyl-1H-pyrazol-4-yl)phenyl]-2-[5-(2-isopropylpyrazol-3-yl)-4H-1,2,4-triazol-3-yl]propanamide] yielded an EC50 of 0.027 µM. `Cc1n[nH]c(C)c1-c1ccc(NC(=O)C(c2nnc(-c3ccnn3C(C)C)[nH]2)C(C2CC2)C2CC2)cc1` (single isomer, unassigned) [Example 71, 3,3-dicyclopropyl-N-[4-(3,5-dimethyl-1H-pyrazol-4-yl)phenyl]-2-[5-(2-isopropylpyrazol-3-yl)-4H-1,2,4-triazol-3-yl]propanamide] showed an EC50 of over 0.625 µM. `Cc1n[nH]c(C)c1-c1ccc(NC(=O)C(c2nnc(-c3ccccc3)[nH]2)C(C2CC2)C2CC2)cc1` (stereo not shown) [Example 1, 3,3-dicyclopropyl-N-[4-(3,5-dimethyl-1H-pyrazol-4-yl)phenyl]-2-(5-phenyl-4H-1,2,4-triazol-3-yl)propanamide] gave an EC50 of 0.29 µM. Work on `Cc1n[nH]c(C)c1-c1ccc(NC(=O)C(c2nc(-c3ccccc3)c[nH]2)C(C2CC2)C2CC2)cc1` (stereo not shown) [Example 2, 3,3-dicyclopropyl-N-[4-(3,5-dimethyl-1H-pyrazol-4-yl)phenyl]-2-(4-phenyl-1H-imidazol-2-yl)propanamide] yielded an EC50 of 0.31 µM. With `Cc1n[nH]c(C)c1-c1ccc(NC(=O)C(c2nc(-c3ccccc3)c(Cl)[nH]2)C(C2CC2)C2CC2)cc1` (stereo not shown) [Example 3, 2-(5-chloro-4-phenyl-1H-imidazol-2-yl)-3,3-dicyclopropyl-N-[4-(3,5-dimethyl-1H-pyrazol-4-yl)phenyl]propanamide] the EC50 was 3.1 µM. Work on `Cc1n[nH]c(C)c1-c1ccc(NC(=O)C(c2nnc[nH]2)C(C2CC2)C2CC2)cc1` (stereo not shown) [Example 4, 3,3-dicyclopropyl-N-[4-(3,5-dimethyl-1H-pyrazol-4-yl)phenyl]-2-(4H-1,2,4-triazol-3-yl)propanamide] yielded an EC50 of 2.9 µM. `Cc1n[nH]c(C)c1-c1ccc(NC(=O)C(c2nnc(-c3ccccc3F)[nH]2)C(C2CC2)C2CC2)cc1` (stereo not shown) [Example 5, 3,3-dicyclopropyl-N-[4-(3,5-dimethyl-1H-pyrazol-4-yl)phenyl]-2-[5-(2-fluorophenyl)-4H-1,2,4-triazol-3-yl]propanamide] showed an EC50 of 0.39 µM. `Cc1n[nH]c(C)c1-c1ccc(NC(=O)C(c2ncc[nH]2)C(C2CC2)C2CC2)cc1` (stereo not shown) [Example 6, 3,3-dicyclopropyl-N-[4-(3,5-dimethyl-1H-pyrazol-4-yl)phenyl]-2-(1H-imidazol-2-yl)propanamide] showed an EC50 of 1.3 µM. `Cc1n[nH]c(C)c1-c1ccc(NC(=O)C(c2nc(-c3ccccc3)c(C)[nH]2)C(C2CC2)C2CC2)cc1` (stereo not shown) [Example 7, 3,3-dicyclopropyl-N-[4-(3,5-dimethyl-1H-pyrazol-4-yl)phenyl]-2-(5-methyl-4-phenyl-1H-imidazol-2-yl)propanamide] gave an EC50 of 0.8 µM. `COc1ccccc1-c1cnc(C(C(=O)Nc2ccc(-c3c(C)n[nH]c3C)cc2)C(C2CC2)C2CC2)[nH]1` (stereo not shown) [Example 9, 3,3-dicyclopropyl-N-[4-(3,5-dimethyl-1H-pyrazol-4-yl)phenyl]-2-[5-(2-methoxyphenyl)-1H-imidazol-2-yl]propanamide] was tested, and the EC50 was 0.45 µM. Work on `Cc1n[nH]c(C)c1-c1ccc(NC(=O)C(c2nnc(C3CCCC3)[nH]2)C(C2CC2)C2CC2)cc1` (stereo not shown) [Example 10, 2-(5-cyclopentyl-4H-1,2,4-triazol-3-yl)-3,3-dicyclopropyl-N-[4-(3,5-dimethyl-1H-pyrazol-4-yl)phenyl]propanamide] yielded an EC50 of 1.9 µM. In the case of `Cc1n[nH]c(C)c1-c1ccc(NC(=O)C(c2nnc(-c3ccnn3C(C)C)[nH]2)C(C2CC2)C2CC2)nc1F` (stereo not shown) [Example 11, 3,3-dicyclopropyl-N-[5-(3,5-dimethyl-1H-pyrazol-4-yl)-6-fluoro-2-pyridyl]-2-[5-(2-isopropylpyrazol-3-yl)-4H-1,2,4-triazol-3-yl]propanamide], the EC50 is reported as 0.093 µM. `Cc1n[nH]c(C)c1-c1ccc(NC(=O)C(c2nnc(-c3ccnn3C(C)C)[nH]2)C(C2CC2)C2CC2)c(F)c1` (stereo not shown) [Example 12, 3,3-dicyclopropyl-N-[4-(3,5-dimethyl-1H-pyrazol-4-yl)-2-fluoro-phenyl]-2-[5-(2-isopropylpyrazol-3-yl)-4H-1,2,4-triazol-3-yl]propanamide] was tested, and the EC50 was 0.14 µM. Molecule `Cc1nonc1-c1nnc(C(C(=O)Nc2ccc(-c3c(C)n[nH]c3C)cc2)C(C2CC2)C2CC2)[nH]1` (stereo not shown) [Example 13, 3,3-dicyclopropyl-N-[4-(3,5-dimethyl-1H-pyrazol-4-yl)phenyl]-2-[5-(4-methyl-1,2,5-oxadiazol-3-yl)-4H-1,2,4-triazol-3-yl]propanamide] has an EC50 of 0.17 µM. Molecule `Cc1n[nH]c(C)c1-c1ccc(NC(=O)C(c2nnc(-c3c(F)cnn3C)[nH]2)C(C2CC2)C2CC2)cc1` (stereo not shown) [Example 14, 3,3-dicyclopropyl-N-[4-(3,5-dimethyl-1H-pyrazol-4-yl)phenyl]-2-[5-(4-fluoro-2-methyl-pyrazol-3-yl)-4H-1,2,4-triazol-3-yl]propanamide] has an EC50 of 0.3 µM. For `Cc1n[nH]c(C)c1-c1ccc(NC(=O)C(c2nnc(Cc3cccnc3)[nH]2)C(C2CC2)C2CC2)cc1` (stereo not shown) [Example 15, 3,3-dicyclopropyl-N-[4-(3,5-dimethyl-1H-pyrazol-4-yl)phenyl]-2-[5-(3-pyridylmethyl)-4H-1,2,4-triazol-3-yl]propanamide], the EC50 was 0.35 µM. `Cc1n[nH]c(C)c1-c1ccc(NC(=O)C(c2nnc(Cc3cc[nH]n3)[nH]2)C(C2CC2)C2CC2)cc1` (stereo not shown) [Example 16, 3,3-dicyclopropyl-N-[4-(3,5-dimethyl-1H-pyrazol-4-yl)phenyl]-2-[5-(1H-pyrazol-3-ylmethyl)-4H-1,2,4-triazol-3-yl]propanamide] showed an EC50 of 1.5 µM. `Cc1n[nH]c(C)c1-c1ccc(NC(=O)C(c2nnc(Cc3ccccc3)[nH]2)C(C2CC2)C2CC2)cc1` (stereo not shown) [Example 17, 2-(5-benzyl-4H-1,2,4-triazol-3-yl)-3,3-dicyclopropyl-N-[4-(3,5-dimethyl-1H-pyrazol-4-yl)phenyl]propanamide] showed an EC50 of 0.24 µM. With `Cc1n[nH]c(C)c1-c1ccc(NC(=O)C(c2nnc(-c3ccccc3Cl)[nH]2)C(C2CC2)C2CC2)cc1` (stereo not shown) [Example 18, 2-[5-(2-chlorophenyl)-4H-1,2,4-triazol-3-yl]-3,3-dicyclopropyl-N-[4-(3,5-dimethyl-1H-pyrazol-4-yl)phenyl]propanamide] the EC50 was 0.31 µM. With `COc1ccccc1-c1nnc(C(C(=O)Nc2ccc(-c3c(C)n[nH]c3C)cc2)C(C2CC2)C2CC2)[nH]1` (stereo not shown) [Example 19, 3,3-dicyclopropyl-N-[4-(3,5-dimethyl-1H-pyrazol-4-yl)phenyl]-2-[5-(2-methoxyphenyl)-4H-1,2,4-triazol-3-yl]propanamide] the EC50 was 0.62 µM. `Cc1n[nH]c(C)c1-c1ccc(NC(=O)C(c2nnc(-c3cnn(C)c3)[nH]2)C(C2CC2)C2CC2)cc1` (stereo not shown) [Example 20, 3,3-dicyclopropyl-N-[4-(3,5-dimethyl-1H-pyrazol-4-yl)phenyl]-2-[5-(1-methylpyrazol-4-yl)-4H-1,2,4-triazol-3-yl]propanamide] was tested, and the EC50 was 0.99 µM. For `Cc1n[nH]c(C)c1-c1ccc(NC(=O)C(c2nnc(-c3ccnn3C)[nH]2)C(C2CC2)C2CC2)cc1` (stereo not shown) [Example 21, 3,3-dicyclopropyl-N-[4-(3,5-dimethyl-1H-pyrazol-4-yl)phenyl]-2-[5-(2-methylpyrazol-3-yl)-4H-1,2,4-triazol-3-yl]propanamide], the EC50 was 0.2 µM. `Cc1n[nH]c(C)c1-c1ccc(NC(=O)C(c2nnc(-c3ccn(C)c(=O)c3)[nH]2)C(C2CC2)C2CC2)cc1` (stereo not shown) [Example 22, 3,3-dicyclopropyl-N-[4-(3,5-dimethyl-1H-pyrazol-4-yl)phenyl]-2-[5-(1-methyl-2-oxo-4-pyridyl)-4H-1,2,4-triazol-3-yl]propanamide] gave an EC50 of 0.43 µM. With `CCn1nccc1-c1nnc(C(C(=O)Nc2ccc(-c3c(C)n[nH]c3C)cc2)C(C2CC2)C2CC2)[nH]1` (stereo not shown) [Example 23, 3,3-dicyclopropyl-N-[4-(3,5-dimethyl-1H-pyrazol-4-yl)phenyl]-2-[5-(2-ethylpyrazol-3-yl)-4H-1,2,4-triazol-3-yl]propanamide] the EC50 was 0.059 µM. In the case of `Cc1n[nH]c(C)c1-c1ccc(NC(=O)C(c2nnc(-c3ccn[nH]3)[nH]2)C(C2CC2)C2CC2)cc1` (stereo not shown) [Example 24, 3,3-dicyclopropyl-N-[4-(3,5-dimethyl-1H-pyrazol-4-yl)phenyl]-2-[5-(1H-pyrazol-5-yl)-4H-1,2,4-triazol-3-yl]propanamide], the EC50 is reported as 0.69 µM.
